Measured values as given in ChEMBL document CHEMBL1201862, “PubChem BioAssay data set” (2004).
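Five concentrations, 48 hours, 96-well plates. Abbreviation: GI50, concentration required for 50% inhibition of growth.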 The source made the active and inactive calls. No stated cut-off is given here; in the data, active = GI50 up to about 1.1 µM and inactive = higher.

Experiments:
Test in all cases: NCI-60 cell line screen, 48 h
[1] = test system: KM12
[2] = test system: NCI-H23
[3] = test system: SF-295
[4] = test system: SR
[5] = test system: LOX IMVI
[6] = test system: MOLT-4
[7] = test system: 786-0
[8] = test system: SN12C
[9] = test system: SF-539
[10] = test system: SW-620
[11] = test system: K562
[12] = test system: HL-60
[13] = test system: SK-OV-3
[14] = test system: HT-29
[15] = test system: TK-10
[16] = test system: SK-MEL-28
[17] = test system: IGROV-1
[18] = test system: A498
[19] = test system: MDA-N
[20] = test system: RPMI-8226
[21] = test system: ACHN
[22] = test system: Hs-578T
[23] = test system: SK-MEL-5
[24] = test system: COLO 205
[25] = test system: HCT-116
[26] = test system: PC-3
[27] = test system: SF-268
[28] = test system: SNB-75
[29] = test system: DU-145
[30] = test system: OVCAR-4
[31] = test system: HCC 2998
[32] = test system: T47D
[33] = test system: UO-31
[34] = test system: HOP-62
[35] = test system: MDA-MB-231
[36] = test system: UACC-62
[37] = test system: NCI-H460
[38] = test system: MCF7
[39] = test system: RXF 393
[40] = test system: CCRF-CEM
[41] = test system: BT-549
[42] = test system: MDA-MB-435
[43] = test system: UACC-257
[44] = test system: M14
[45] = test system: CAKI-1
[46] = test system: U-251
[47] = test system: SNB-19
[48] = test system: OVCAR-5
[49] = test system: Malme-3M
[50] = test system: HOP-92
[51] = test system: OVCAR-3
[52] = test system: A549
[53] = test system: EKVX
[54] = test system: HCT-15
[55] = test system: NCI/ADR-RES
[56] = test system: OVCAR-8
[57] = test system: SK-MEL-2
[58] = test system: NCI-H522
[59] = test system: NCI-H226

**Q.** How did the GI50 [1] turn out when `COc1c(Cl)nc2ccccc2c1N=[N+]=[N-]` was run?
**A.** > 100 µM (inactive)

**Q.** And the GI50 [2]?
**A.** 92.7 µM (inactive)

**Q.** What about the GI50 [3] of the same compound?
**A.** > 100 µM (inactive)

**Q.** What about the GI50 [4] of the same compound?
**A.** 80 µM (inactive)

**Q.** And the GI50 [5]?
**A.** 48.6 µM (inactive)

**Q.** And the GI50 [6]?
**A.** 19.2 µM (inactive)

**Q.** And the GI50 [7]?
**A.** > 100 µM (inactive)

**Q.** And the GI50 [8]?
**A.** 92 µM (inactive)

**Q.** And the GI50 [9]?
**A.** 71.9 µM (inactive)

**Q.** And the GI50 [10]?
**A.** > 100 µM (inactive)

**Q.** What about the GI50 [11] of the same compound?
**A.** 83.9 µM (inactive)

**Q.** What about the GI50 [12] of the same compound?
**A.** 53.3 µM (inactive)

**Q.** And the GI50 [13]?
**A.** > 100 µM (inactive)

**Q.** What about the GI50 [14] of the same compound?
**A.** > 100 µM (inactive)

**Q.** What about the GI50 [15] of the same compound?
**A.** 70 µM (inactive)

**Q.** And the GI50 [16]?
**A.** > 100 µM (inactive)

**Q.** What about the GI50 [17] of the same compound?
**A.** 49.5 µM (inactive)

**Q.** What about the GI50 [18] of the same compound?
**A.** 12.4 µM (inactive)

**Q.** And the GI50 [19]?
**A.** > 100 µM (inactive)

**Q.** And the GI50 [20]?
**A.** 95.7 µM (inactive)

**Q.** What about the GI50 [21] of the same compound?
**A.** 43.4 µM (inactive)

**Q.** What about the GI50 [22] of the same compound?
**A.** 28.3 µM (inactive)

**Q.** And the GI50 [23]?
**A.** 40.5 µM (inactive)

**Q.** And the GI50 [24]?
**A.** > 100 µM (inactive)

**Q.** What about the GI50 [25] of the same compound?
**A.** 52.7 µM (inactive)

**Q.** What about the GI50 [26] of the same compound?
**A.** 46 µM (inactive)

**Q.** What about the GI50 [27] of the same compound?
**A.** 28.7 µM (inactive)

**Q.** And the GI50 [28]?
**A.** 63 µM (inactive)

**Q.** What about the GI50 [29] of the same compound?
**A.** > 100 µM (inactive)

**Q.** What about the GI50 [30] of the same compound?
**A.** > 100 µM (inactive)

**Q.** What about the GI50 [31] of the same compound?
**A.** > 100 µM (inactive)

**Q.** And the GI50 [32]?
**A.** 85.7 µM (inactive)

**Q.** And the GI50 [33]?
**A.** 17.3 µM (inactive)

**Q.** And the GI50 [34]?
**A.** 39.7 µM (inactive)

**Q.** And the GI50 [35]?
**A.** 77.1 µM (inactive)

**Q.** What about the GI50 [36] of the same compound?
**A.** 54.2 µM (inactive)

**Q.** What about the GI50 [37] of the same compound?
**A.** > 100 µM (inactive)

**Q.** And the GI50 [38]?
**A.** > 100 µM (inactive)

**Q.** And the GI50 [39]?
**A.** 30.1 µM (inactive)

**Q.** What about the GI50 [40] of the same compound?
**A.** 88.9 µM (inactive)

**Q.** What about the GI50 [41] of the same compound?
**A.** 19.8 µM (inactive)

**Q.** And the GI50 [42]?
**A.** > 100 µM (inactive)

**Q.** What about the GI50 [43] of the same compound?
**A.** > 100 µM (inactive)

**Q.** And the GI50 [44]?
**A.** > 100 µM (inactive)

**Q.** What about the GI50 [45] of the same compound?
**A.** 49.4 µM (inactive)

**Q.** And the GI50 [46]?
**A.** > 100 µM (inactive)

**Q.** What about the GI50 [47] of the same compound?
**A.** > 100 µM (inactive)

**Q.** And the GI50 [48]?
**A.** > 100 µM (inactive)

**Q.** And the GI50 [49]?
**A.** > 100 µM (inactive)

**Q.** What about the GI50 [50] of the same compound?
**A.** 22.2 µM (inactive)

**Q.** What about the GI50 [51] of the same compound?
**A.** > 100 µM (inactive)

**Q.** What about the GI50 [52] of the same compound?
**A.** > 100 µM (inactive)

**Q.** For `[N-]=[N+]=Nc1c(N2CCOCC2)c(Cl)nc2ccccc12`, which GI50 [53] is on record?
**A.** 9.55 µM (inactive)

**Q.** And the GI50 [1]?
**A.** 27 µM (inactive)

**Q.** And the GI50 [2]?
**A.** 30.7 µM (inactive)

**Q.** What about the GI50 [3] of the same compound?
**A.** 60.5 µM (inactive)

**Q.** What about the GI50 [4] of the same compound?
**A.** 92.3 µM (inactive)

**Q.** What about the GI50 [5] of the same compound?
**A.** 46.6 µM (inactive)

**Q.** What about the GI50 [6] of the same compound?
**A.** 65.2 µM (inactive)

**Q.** What about the GI50 [7] of the same compound?
**A.** 86.7 µM (inactive)

**Q.** What about the GI50 [8] of the same compound?
**A.** 47.8 µM (inactive)

**Q.** And the GI50 [9]?
**A.** 65.5 µM (inactive)

**Q.** And the GI50 [10]?
**A.** 72.3 µM (inactive)

**Q.** And the GI50 [11]?
**A.** 37.6 µM (inactive)

**Q.** And the GI50 [12]?
**A.** 66.1 µM (inactive)

**Q.** What about the GI50 [13] of the same compound?
**A.** > 100 µM (inactive)

**Q.** And the GI50 [14]?
**A.** 27.2 µM (inactive)

**Q.** And the GI50 [15]?
**A.** 61.2 µM (inactive)

**Q.** And the GI50 [16]?
**A.** 59.8 µM (inactive)

**Q.** What about the GI50 [17] of the same compound?
**A.** 81.8 µM (inactive)

**Q.** What about the GI50 [18] of the same compound?
**A.** 47.9 µM (inactive)

**Q.** What about the GI50 [19] of the same compound?
**A.** 48.8 µM (inactive)

**Q.** And the GI50 [20]?
**A.** 74 µM (inactive)

**Q.** And the GI50 [54]?
**A.** 46.6 µM

**Q.** And the GI50 [21]?
**A.** 39.2 µM (inactive)

**Q.** And the GI50 [55]?
**A.** 26.4 µM (inactive)

**Q.** And the GI50 [22]?
**A.** 44.8 µM (inactive)

**Q.** And the GI50 [23]?
**A.** 20.7 µM (inactive)

**Q.** What about the GI50 [56] of the same compound?
**A.** 35.2 µM (inactive)

**Q.** What about the GI50 [24] of the same compound?
**A.** 33.5 µM (inactive)

**Q.** What about the GI50 [25] of the same compound?
**A.** 39.5 µM (inactive)

**Q.** What about the GI50 [26] of the same compound?
**A.** 34.2 µM (inactive)

**Q.** And the GI50 [27]?
**A.** 37.5 µM (inactive)

**Q.** What about the GI50 [28] of the same compound?
**A.** < 0.01 µM (active)

**Q.** And the GI50 [30]?
**A.** 33.7 µM (inactive)

**Q.** What about the GI50 [31] of the same compound?
**A.** 92.7 µM (inactive)

**Q.** What about the GI50 [32] of the same compound?
**A.** 65.6 µM (inactive)

**Q.** And the GI50 [33]?
**A.** 33.6 µM (inactive)

**Q.** What about the GI50 [57] of the same compound?
**A.** 39 µM (inactive)

**Q.** What about the GI50 [34] of the same compound?
**A.** 58.6 µM (inactive)

**Q.** What about the GI50 [35] of the same compound?
**A.** 23.1 µM (inactive)

**Q.** What about the GI50 [37] of the same compound?
**A.** 28.8 µM (inactive)

**Q.** And the GI50 [39]?
**A.** 64.6 µM (inactive)

**Q.** And the GI50 [40]?
**A.** > 100 µM (inactive)

**Q.** What about the GI50 [58] of the same compound?
**A.** 29.7 µM (inactive)

**Q.** And the GI50 [41]?
**A.** 25.4 µM (inactive)

**Q.** What about the GI50 [42] of the same compound?
**A.** 42.5 µM (inactive)

**Q.** What about the GI50 [43] of the same compound?
**A.** 27.9 µM (inactive)

**Q.** And the GI50 [44]?
**A.** 37.4 µM (inactive)

**Q.** What about the GI50 [45] of the same compound?
**A.** 60.5 µM (inactive)

**Q.** What about the GI50 [59] of the same compound?
**A.** 30.3 µM (inactive)

**Q.** What about the GI50 [46] of the same compound?
**A.** 82.6 µM (inactive)

**Q.** And the GI50 [47]?
**A.** > 100 µM (inactive)

**Q.** And the GI50 [48]?
**A.** > 100 µM (inactive)

**Q.** What about the GI50 [49] of the same compound?
**A.** 41.5 µM (inactive)

**Q.** And the GI50 [50]?
**A.** 46.7 µM (inactive)

**Q.** And the GI50 [51]?
**A.** 43.5 µM (inactive)

**Q.** And the GI50 [52]?
**A.** 51.2 µM (inactive)
